According to US10870647B2, “Imidazopyridine derivative, method for preparing same, and pharmaceutical composition containing same as active ingredient for preventing or treating cancer” (DAEGU-GYEONGBUK MEDICAL INNOVATION FOUNDATION, priority 2016, dated 2020):

What was measured:
Experiment in all cases: Kinase selectivity, scanMAX Kinase assay panel (DiscoverX), % control at 1 uM
Assay type in all cases: binding
[1] = target: T1, scanMAX Kinase assay panel (Homo sapiens, UniProt P45983); settings: JNK1; 1 uM; read-out: Percent Control (%)
T1 construct: purchased DiscoverX
Procedure, shortened: (§1)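 A single concentration of 1 uM, in DMSO, is applied across the kinase panel. Activity against an individual enzyme is assigned where % control is less than 35.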

[2] = target: T2, scanMAX Kinase assay panel (Homo sapiens, UniProt P10721, L576P); settings: KIT (L576P); 1 uM; read-out: Percent Control (%)
T2 construct: purchased DiscoverX
Procedure, shortened: as §1

[3] = target: T3, scanMAX Kinase assay panel (Homo sapiens, UniProt P53779); settings: JNK3; 1 uM; read-out: Percent Control (%)
T3 construct: purchased DiscoverX
Procedure, shortened: as §1

[4] = target: T4, scanMAX Kinase assay panel (Homo sapiens, UniProt P31751); settings: AKT2; 1 uM; read-out: Percent Control (%)
T4 construct: purchased DiscoverX
Procedure, shortened: as §1

[5] = target: T5, scanMAX Kinase assay panel (Homo sapiens, UniProt P52333); settings: JAK3 (JH1domain-catalytic); 1 uM; read-out: Percent Control (%)
T5 construct: purchased DiscoverX
T5 sequence (P52333 1-1124): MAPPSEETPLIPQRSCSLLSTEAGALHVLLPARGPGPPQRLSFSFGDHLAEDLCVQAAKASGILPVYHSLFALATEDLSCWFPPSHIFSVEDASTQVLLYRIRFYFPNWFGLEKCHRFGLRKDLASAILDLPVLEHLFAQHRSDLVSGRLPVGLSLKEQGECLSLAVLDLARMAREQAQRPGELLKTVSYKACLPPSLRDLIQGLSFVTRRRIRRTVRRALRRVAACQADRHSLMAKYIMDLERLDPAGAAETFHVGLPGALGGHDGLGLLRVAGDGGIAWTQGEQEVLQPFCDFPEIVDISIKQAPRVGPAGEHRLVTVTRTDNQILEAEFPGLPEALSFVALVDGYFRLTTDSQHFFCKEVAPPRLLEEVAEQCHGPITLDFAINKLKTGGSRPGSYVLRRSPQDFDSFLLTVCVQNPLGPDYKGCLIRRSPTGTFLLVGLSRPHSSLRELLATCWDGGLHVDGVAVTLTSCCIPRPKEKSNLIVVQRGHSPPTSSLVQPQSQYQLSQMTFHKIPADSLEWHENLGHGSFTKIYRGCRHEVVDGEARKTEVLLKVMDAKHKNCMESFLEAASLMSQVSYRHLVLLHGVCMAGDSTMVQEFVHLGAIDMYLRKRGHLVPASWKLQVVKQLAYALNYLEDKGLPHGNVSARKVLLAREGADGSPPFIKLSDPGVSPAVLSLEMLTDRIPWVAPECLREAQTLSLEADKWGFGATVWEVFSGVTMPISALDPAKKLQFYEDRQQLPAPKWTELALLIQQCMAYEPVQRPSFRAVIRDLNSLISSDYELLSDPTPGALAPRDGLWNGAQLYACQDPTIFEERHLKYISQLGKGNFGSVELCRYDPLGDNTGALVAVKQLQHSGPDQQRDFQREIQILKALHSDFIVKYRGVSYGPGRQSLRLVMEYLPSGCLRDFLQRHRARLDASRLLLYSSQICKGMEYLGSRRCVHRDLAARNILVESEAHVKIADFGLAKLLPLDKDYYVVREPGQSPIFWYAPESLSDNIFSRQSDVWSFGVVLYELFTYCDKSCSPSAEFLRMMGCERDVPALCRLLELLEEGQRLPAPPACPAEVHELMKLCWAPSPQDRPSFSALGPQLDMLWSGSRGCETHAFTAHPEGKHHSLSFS
Procedure, shortened: as §1

[6] = target: T6, scanMAX Kinase assay panel (Homo sapiens, UniProt P35590); settings: TIE1; 1 uM; read-out: Percent Control (%)
T6 construct: purchased DiscoverX
Procedure, shortened: as §1

[7] = target: T7, scanMAX Kinase assay panel (Homo sapiens, UniProt P41240); settings: CSK; 1 uM; read-out: Percent Control (%)
T7 construct: purchased DiscoverX
Procedure, shortened: as §1

[8] = target: T8, scanMAX Kinase assay panel (Homo sapiens, UniProt P42336, E542K); settings: PIK3CA (E542K); 1 uM; read-out: Percent Control (%)
T8 construct: purchased DiscoverX
Procedure, shortened: as §1

[9] = target: T9, scanMAX Kinase assay panel (Homo sapiens, UniProt Q16288); settings: TRKC; 1 uM; read-out: Percent Control (%)
T9 construct: purchased DiscoverX
Procedure, shortened: as §1

[10] = target: T10, scanMAX Kinase assay panel (Homo sapiens, UniProt Q9UPE1); settings: SRPK3; 1 uM; read-out: Percent Control (%)
T10 construct: purchased DiscoverX
Procedure, shortened: as §1

[11] = target: T11, scanMAX Kinase assay panel (Homo sapiens, UniProt Q13470); settings: TNK1; 1 uM; read-out: Percent Control (%)
T11 construct: purchased DiscoverX
T11 sequence (Q13470 1-666): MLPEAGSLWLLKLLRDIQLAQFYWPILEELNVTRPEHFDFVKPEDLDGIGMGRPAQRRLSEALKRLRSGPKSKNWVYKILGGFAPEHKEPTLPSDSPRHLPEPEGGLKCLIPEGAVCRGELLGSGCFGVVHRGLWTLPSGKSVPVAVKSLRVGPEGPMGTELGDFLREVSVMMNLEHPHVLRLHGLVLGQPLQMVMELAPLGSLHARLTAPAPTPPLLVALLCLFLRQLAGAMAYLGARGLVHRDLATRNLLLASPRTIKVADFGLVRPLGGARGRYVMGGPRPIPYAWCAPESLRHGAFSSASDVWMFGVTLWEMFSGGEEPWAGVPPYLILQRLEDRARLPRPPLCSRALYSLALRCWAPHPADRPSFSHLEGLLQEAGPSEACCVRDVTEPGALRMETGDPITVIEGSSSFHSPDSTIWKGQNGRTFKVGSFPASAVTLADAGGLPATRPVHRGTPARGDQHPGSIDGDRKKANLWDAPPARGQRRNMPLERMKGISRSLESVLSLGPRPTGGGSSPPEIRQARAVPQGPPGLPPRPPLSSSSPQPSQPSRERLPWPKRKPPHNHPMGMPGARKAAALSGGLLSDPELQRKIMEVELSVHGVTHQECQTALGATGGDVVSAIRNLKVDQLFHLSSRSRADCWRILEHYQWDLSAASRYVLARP
Procedure, shortened: as §1

T1 sequence (P45983 whole entry): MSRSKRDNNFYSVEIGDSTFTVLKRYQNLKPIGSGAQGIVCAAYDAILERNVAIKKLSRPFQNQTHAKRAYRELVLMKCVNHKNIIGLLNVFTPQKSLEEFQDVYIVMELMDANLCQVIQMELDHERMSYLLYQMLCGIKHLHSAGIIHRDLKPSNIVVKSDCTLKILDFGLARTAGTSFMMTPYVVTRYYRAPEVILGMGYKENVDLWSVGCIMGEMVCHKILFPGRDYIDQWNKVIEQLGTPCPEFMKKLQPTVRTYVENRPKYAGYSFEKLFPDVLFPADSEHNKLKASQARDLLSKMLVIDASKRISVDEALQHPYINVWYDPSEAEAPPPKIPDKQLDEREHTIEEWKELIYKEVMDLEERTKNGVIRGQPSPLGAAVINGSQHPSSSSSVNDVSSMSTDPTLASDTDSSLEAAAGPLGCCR
T7 sequence (P41240 whole entry): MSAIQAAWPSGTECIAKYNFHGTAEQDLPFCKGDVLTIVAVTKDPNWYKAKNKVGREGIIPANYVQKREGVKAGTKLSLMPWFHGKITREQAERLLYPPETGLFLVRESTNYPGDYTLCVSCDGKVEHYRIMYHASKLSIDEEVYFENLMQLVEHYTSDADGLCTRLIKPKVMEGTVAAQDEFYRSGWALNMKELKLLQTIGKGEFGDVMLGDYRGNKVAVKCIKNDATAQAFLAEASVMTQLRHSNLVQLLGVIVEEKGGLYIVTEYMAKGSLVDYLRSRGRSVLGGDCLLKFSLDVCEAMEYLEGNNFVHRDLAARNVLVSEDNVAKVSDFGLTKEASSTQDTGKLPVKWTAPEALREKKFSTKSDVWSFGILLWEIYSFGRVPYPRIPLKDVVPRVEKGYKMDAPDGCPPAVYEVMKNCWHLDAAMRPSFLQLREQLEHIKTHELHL
T10 sequence (Q9UPE1 whole entry): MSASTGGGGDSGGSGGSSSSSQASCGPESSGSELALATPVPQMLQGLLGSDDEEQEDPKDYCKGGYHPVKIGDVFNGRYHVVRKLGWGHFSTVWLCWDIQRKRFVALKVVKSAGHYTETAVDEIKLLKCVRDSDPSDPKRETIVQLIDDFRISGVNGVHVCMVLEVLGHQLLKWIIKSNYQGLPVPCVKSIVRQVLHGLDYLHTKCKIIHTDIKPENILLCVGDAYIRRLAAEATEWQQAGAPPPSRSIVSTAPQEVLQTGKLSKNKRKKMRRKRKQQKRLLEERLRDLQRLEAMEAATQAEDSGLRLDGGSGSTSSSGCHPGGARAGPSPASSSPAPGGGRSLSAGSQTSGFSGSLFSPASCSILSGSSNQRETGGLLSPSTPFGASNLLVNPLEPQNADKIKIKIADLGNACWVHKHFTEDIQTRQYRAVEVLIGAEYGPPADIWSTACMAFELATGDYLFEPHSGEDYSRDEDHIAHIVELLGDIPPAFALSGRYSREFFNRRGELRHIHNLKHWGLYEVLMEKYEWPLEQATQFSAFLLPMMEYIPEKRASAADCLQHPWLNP
T4 sequence (P31751 whole entry): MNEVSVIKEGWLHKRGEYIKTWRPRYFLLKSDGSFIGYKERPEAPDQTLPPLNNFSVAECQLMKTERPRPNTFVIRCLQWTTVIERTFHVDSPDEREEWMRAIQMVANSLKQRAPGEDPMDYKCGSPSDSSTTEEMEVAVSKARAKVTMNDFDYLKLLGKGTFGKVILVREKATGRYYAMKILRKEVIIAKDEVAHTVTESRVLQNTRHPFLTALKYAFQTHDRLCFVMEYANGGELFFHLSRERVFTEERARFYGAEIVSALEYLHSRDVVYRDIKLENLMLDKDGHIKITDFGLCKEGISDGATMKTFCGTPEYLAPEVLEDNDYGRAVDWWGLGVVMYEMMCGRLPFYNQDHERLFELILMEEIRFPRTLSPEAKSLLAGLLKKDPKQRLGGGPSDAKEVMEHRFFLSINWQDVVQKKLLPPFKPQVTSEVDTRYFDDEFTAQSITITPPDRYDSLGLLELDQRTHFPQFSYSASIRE
T2 sequence (P10721 26-976 L576P): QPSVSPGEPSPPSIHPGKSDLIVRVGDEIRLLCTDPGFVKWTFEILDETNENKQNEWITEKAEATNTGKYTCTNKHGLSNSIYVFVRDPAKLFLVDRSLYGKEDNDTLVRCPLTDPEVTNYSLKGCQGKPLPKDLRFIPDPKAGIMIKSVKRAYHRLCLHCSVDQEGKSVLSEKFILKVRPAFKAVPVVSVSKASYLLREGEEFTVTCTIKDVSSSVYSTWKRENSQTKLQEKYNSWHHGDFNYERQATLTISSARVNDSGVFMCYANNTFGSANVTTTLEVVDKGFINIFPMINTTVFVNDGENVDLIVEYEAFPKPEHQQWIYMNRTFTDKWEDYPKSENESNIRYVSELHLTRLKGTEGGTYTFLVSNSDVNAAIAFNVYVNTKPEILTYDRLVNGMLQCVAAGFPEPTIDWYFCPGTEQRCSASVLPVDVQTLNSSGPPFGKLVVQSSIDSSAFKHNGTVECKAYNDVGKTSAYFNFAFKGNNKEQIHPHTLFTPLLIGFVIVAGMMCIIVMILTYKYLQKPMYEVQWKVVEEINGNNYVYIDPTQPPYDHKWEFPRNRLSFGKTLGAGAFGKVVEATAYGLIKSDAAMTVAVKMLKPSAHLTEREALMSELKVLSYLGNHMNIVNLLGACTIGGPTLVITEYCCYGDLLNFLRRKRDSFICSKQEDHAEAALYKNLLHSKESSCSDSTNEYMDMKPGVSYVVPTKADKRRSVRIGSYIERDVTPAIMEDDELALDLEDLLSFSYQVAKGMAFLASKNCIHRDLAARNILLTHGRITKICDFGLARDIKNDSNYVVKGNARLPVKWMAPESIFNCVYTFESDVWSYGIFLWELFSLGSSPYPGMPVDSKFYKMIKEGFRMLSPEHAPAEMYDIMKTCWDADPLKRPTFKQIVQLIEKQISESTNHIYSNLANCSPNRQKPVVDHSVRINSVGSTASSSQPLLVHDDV
T9 sequence (Q16288 32-839): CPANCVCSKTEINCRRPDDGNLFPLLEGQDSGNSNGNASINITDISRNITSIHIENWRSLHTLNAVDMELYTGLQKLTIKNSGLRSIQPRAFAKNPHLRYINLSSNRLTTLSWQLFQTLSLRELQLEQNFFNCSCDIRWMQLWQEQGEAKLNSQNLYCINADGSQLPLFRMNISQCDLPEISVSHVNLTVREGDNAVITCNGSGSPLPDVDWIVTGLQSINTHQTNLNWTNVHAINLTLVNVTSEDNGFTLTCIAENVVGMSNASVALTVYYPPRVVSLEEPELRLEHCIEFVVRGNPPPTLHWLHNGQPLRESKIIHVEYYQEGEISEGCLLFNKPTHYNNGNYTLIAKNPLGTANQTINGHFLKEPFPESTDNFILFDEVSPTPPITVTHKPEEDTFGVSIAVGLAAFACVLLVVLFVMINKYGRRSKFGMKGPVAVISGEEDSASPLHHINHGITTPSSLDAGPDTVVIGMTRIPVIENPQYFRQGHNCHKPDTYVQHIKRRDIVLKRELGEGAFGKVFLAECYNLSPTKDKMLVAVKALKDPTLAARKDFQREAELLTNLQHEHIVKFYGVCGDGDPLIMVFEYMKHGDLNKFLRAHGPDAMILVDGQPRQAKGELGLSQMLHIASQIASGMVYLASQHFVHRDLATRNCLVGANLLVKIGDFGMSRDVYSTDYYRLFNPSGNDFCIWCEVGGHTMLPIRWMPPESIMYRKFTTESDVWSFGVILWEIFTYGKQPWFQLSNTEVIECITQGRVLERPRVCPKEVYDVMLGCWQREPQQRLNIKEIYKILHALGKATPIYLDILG
T6 sequence (P35590 22-1138): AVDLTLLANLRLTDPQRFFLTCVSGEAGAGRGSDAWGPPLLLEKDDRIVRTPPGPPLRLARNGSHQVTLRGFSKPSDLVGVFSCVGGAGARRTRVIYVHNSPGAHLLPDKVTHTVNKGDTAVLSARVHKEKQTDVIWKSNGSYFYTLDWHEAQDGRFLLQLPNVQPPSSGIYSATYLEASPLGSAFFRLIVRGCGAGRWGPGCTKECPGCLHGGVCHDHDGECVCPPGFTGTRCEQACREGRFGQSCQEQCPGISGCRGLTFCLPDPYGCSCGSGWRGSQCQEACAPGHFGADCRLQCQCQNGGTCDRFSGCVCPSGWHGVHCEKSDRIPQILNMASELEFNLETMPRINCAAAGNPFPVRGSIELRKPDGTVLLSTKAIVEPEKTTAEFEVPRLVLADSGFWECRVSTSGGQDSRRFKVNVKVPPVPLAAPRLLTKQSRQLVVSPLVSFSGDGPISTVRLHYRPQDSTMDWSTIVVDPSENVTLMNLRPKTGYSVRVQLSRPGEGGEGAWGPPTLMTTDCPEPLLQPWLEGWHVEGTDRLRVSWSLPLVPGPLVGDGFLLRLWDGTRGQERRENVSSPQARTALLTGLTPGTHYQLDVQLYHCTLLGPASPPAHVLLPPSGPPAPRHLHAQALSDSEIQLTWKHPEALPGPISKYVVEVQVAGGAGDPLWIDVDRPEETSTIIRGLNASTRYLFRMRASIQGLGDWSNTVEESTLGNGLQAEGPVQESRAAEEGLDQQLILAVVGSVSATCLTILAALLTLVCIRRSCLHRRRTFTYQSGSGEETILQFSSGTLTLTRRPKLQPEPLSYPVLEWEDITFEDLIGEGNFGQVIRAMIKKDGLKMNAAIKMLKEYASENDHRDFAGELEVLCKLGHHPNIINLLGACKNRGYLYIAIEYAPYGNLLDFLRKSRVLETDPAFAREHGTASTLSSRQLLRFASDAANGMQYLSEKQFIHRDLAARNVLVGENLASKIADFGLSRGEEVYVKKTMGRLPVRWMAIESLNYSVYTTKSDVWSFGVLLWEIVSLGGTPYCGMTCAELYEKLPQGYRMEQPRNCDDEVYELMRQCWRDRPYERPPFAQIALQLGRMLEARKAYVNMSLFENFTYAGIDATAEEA

SMILES	remaining binding at 1 µM [1] [%]	remaining binding at 1 µM [2] [%]	remaining binding at 1 µM [3] [%]	remaining binding at 1 µM [4] [%]	remaining binding at 1 µM [5] [%]	remaining binding at 1 µM [6] [%]	remaining binding at 1 µM [7] [%]	remaining binding at 1 µM [8] [%]	remaining binding at 1 µM [9] [%]	remaining binding at 1 µM [10] [%]	remaining binding at 1 µM [11] [%]
Cc1ccc(NC(=O)C2(C(=O)Nc3ccc(F)cc3)CC2)cc1C#Cc1cnc2c(Nc3cnn(C(C)C)c3)cccn12 [Example 78]	99	0	100	99	100	27	98	100	96	100	100
Cc1cn(-c2cc(NC(=O)c3ccc(C)c(C#Cc4cnc5c(Nc6cnn(C)c6)cccn45)c3)cc(C(F)(F)F)c2)cn1 [Example 12, 4-methyl-N-(3-(4-methyl-1H-imidazol-1-yl)-5-(trifluoromethyl)phenyl)-3-((8-((1-methyl-1H-pyrazol-4-yl)amino)imidazo[1,2-a]pyridin-3-yl)ethynyl)benzamide]	63	17	98	82	19	26	1	100	3	100	19
Cc1ccc(C(=O)Nc2ccc(CN3CCN(C)CC3)c(C(F)(F)F)c2)cc1C#Cc1cnc2c(Nc3cnn(C)c3)cccn12 [Example 1, 4-methyl-3-((8-((1-methyl-1H-pyrazol-4-yl)amino)imidazo[1,2-a]pyridin-3-yl)ethynyl)-N-(4-((4-methylpiperazin-1-yl)methyl)-3-(trifluoromethyl)phenyl)benzamide]	4	0	19	37	1	2	2	100	0	82	0
